Data taken from US20160250285A1, “NEUROPROTECTIVE PEPTIDES” (priority 2013, published 2016).
“Also recorded” adds a separate entry of the source.

Experiments:
[1] = tested on: primary cortical neuronal cultures
Procedure: Establishment of cortical cultures was as previously described (Meloni et al. 2001). Briefly, cortical tissue from E18-E19 Sprague-Dawley rats was dissociated in Dulbecco's modified Eagle medium (DMEM; Invitrogen, Australia) supplemented with 1.3 mM L-cysteine, 0.9 mM NaHCOa, 10 units/ml papain (Sigma, USA) and 50 units/ml DNase (Sigma) and washed in cold DMEM/10% horse serum. Neurons were resuspended in Neurobasal (Invitrogen) containing 2% B27 supplement (B27; Invitrogen). Before seeding, 96-well sized glass wells (6 mm diameter, ProTech, Australia) or 96-well plastic plates (ProSciTech, Australia) were coated with poly-D-lysine overnight ([…]: 50 mg/mL; 70-150 K, Sigma). Excess poly-D-lysine solution was then removed and replaced with Neurobasal (containing 2% B27; 4% fetal bovine serum; 1% horse serum; […] glutamate; […] 2-mercaptoethanol; and […]). Neurons were plated to obtain ≈10,000 viable neurons for each well on day in vitro 11-12. Neuronal cultures were maintained in a CO2 incubator (5% CO2, 95% air balance, 98% humidity) at 37° C. On day in vitro 4 one third of the culture medium was removed and replaced with fresh Neurobasal/2% B27 containing the mitotic inhibitor, cytosine arabinofuraNOside (1 mM final concentration; Sigma). On day in vitro 8 one half of the culture medium was replaced with Neurobasal/2% B27. Cultures were used on day in vitro 11 or 12 after which time they routinely consist of >97% neurons and 1-3% astrocytes (Meloni et al. 2001).
Peptides were added to culture wells (96-well plate format) 15 minutes prior to glutamic acid or kainic acid exposure by removing media and adding 50 μl of Neurobasal/2% 327 containing CPPs, control peptides or MK801/CNQX. To induce excitotoxicity, 50 μl of Neurobasal/2% B27 containing glutamic acid (200 μM) or kainic acid (400 μM) or NMDA (200 μM) was added to the culture wells (100 μM glutamic acid, 200 μM kainic acid and NMDA 100 μM final concentration). Cultures were incubated at 37° C. in the CO2 incubator for 5 minutes for glutamic acid, 45 minutes for kainic acid and 10 minutes for NMDA exposure, after which time the media was replaced with 100 μl of 50% Neurobasal/2% N2 supplement (Invitrogen) and 50% balanced salt solution (BSS; see below). Cultures were incubated for a further 24 hours at 37° C. in the CO2 incubator. The untreated controls with or without glutamic acid or kainic acid treatment received the same wash steps and media additions.
(§1) Twenty-four hours after insult, neuronal cultures were examined by light microscopy for qualitative assessment of neuronal cell viability. Neuronal viability was quantitatively measured by 3-(4,5,dimethyliazol-2-yl)-5-(3-carboxymethoxy-phenyl)-2-(4-sulfophenyl)-2H-tetrazolium salt (MTS) assay (Promega, Australia). The MTS assay measures the cellular conversion of the tetrazolium salt to a water-soluble brown formazan salt, which is detected spectrophotometrically at 490 nm. MTS absorbance data were converted to reflect proportional cell viability relative to both the untreated and treated controls, with the untreated control taken as 100% viability, and presented as mean±SEM. For studies using astrocytes, bEND3, and SH-Y5Y cells, raw MTS data was used to generate graphs. Viability data was analysed by ANOVA, followed by post-hoc Fischer's PLSD test, with P<0.05 values considered statistically significant. Four- to six wells were used in all assays.

[2] = tested on: brain endothelial cells (bEND3 cells); experiment: In vitro ischemia/OGD model, bEND3 cells; format: cell-based; settings: peptide during/after ischemia (FIG. 3c) or 15 min before OGD (FIGS. 23, 24)
Procedure: The in vitro ischemia model was also used for bEND3 cells, SH-SY5Y cells, and astrocytes. For bEND3 cells anaerobic incubation was extended to 2-3 hours and upon removal from the anaerobic incubator, 60 μl of DMEM/2% FCS was added to wells. […] Upon removal from the anaerobic incubator, 60 μl of DMEM/2% FCS was added to wells.

[3] = tested on: neuroblastoma cell line (SH-SY5Y); experiment: In vitro ischemia model, SH-SY5Y cells; format: cell-based; settings: 5 μM during/2.5 μM post (FIG. 3c)
Procedure: A brain endothelial cell line (bEND3) and a neuroblastoma cell line (SH-SY5Y) were also used for some experiments. bEND3 and SH-SY5Y cells were cultured using standard techniques in DMEM plus 5 or 15% foetal calf serum. Rat primary astrocytes were obtained and cultured as described for cortical neurons except DMEM plus 10% foetal calf serum was used instead of Neurobasal/2% B27, and the mitotic inhibitor, cytosine arabinofuraNOside was not used.
The in vitro ischemia model was also used for bEND3 cells, SH-SY5Y cells, and astrocytes. For bEND3 cells anaerobic incubation was extended to 2-3 hours and upon removal from the anaerobic incubator, 60 μl of DMEM/2% FCS was added to wells. […]
as §1, with “For studies using astrocytes, bEND3, and SH-Y5Y cells, raw MTS data was used to generate graphs. Viability data was analysed by ANOVA, followed by post-hoc Fischer's PLSD test, with P<0.05 values considered statistically significant. Four- to six wells were used in all assays.” left out

N=C(N)NCCC[C@H](NC(=O)[C@H](CCCNC(=N)N)NC(=O)[C@H](CCCNC(=N)N)NC(=O)[C@H](CCCNC(=N)N)NC(=O)[C@H](CCCNC(=N)N)NC(=O)[C@H](CCCNC(=N)N)NC(=O)[C@H](CCCNC(=N)N)NC(=O)[C@H](CCCNC(=N)N)NC(=O)[C@@H](N)CCCNC(=N)N)C(=O)O [Peptide R9]
neuroprotection ([1]; FIG. 2): neuroprotective | fold more potent than TAT-D, based on IC50 values ([1]; kainic acid model): 7 fold | IC50 ([1]; read-out: IC50: Kainic acid model, Table 3, from FIG. 2, 200 μM kainic acid 45 min, viability 24 h, MTS): 0.81 µM | protection of bEND3 cells (cell death / viability after in vitro ischemia/OGD) [2]: reduced; also recorded: able to protect | protection of SH-SY5Y cells (cell death after in vitro ischemia) [3]: reduced; also recorded: able to protect
